Experimental data taken from patent USRE47689E1, “Compounds for treating spinal muscular atrophy” (PTC Therapeutics, Inc., priority 2011, dated 2019).
Read-outs that look alike come from different tables or passages of the source.

Legend:
[1] = system: SMN2 minigene (full length SMN2 minigene mRNA containing SMN2 exon 7); test: SMN2 minigene mRNA splicing RT-qPCR assay in cultured cells; format: cell-based, human; conditions: Homo sapiens, HEK293-H, read-out: EC1.5x for production of full length SMN2 mRNA
Outline: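 Read-out: full-length (exon 7-included) SMN2 minigene mRNA by multiplex RT-qPCR with GAPDH, efficiency-corrected (1+E)^−Ct, GAPDH-normalized and divided by vehicle. Stably transfected HEK293H cells, 24 h compound exposure, duplicates per concentration. Value is EC1.5x, reported as star ranges.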

Smn protein = Smn protein assay in cultured cells (SMN HTRF); format: cell-based, human; conditions: SMA patient fibroblast cells, 48 hours, 7-point concentration data, fold increase relative to vehicle control (SMN HTRF)
Outline: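 Lysates in RIPA with protease inhibitors are incubated overnight at room temperature with HTRF anti-SMN antibodies. EC1.5x is derived from fold increase in ΔF over vehicle.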

[2] = HEK293H cells stably transfected with SMN2-A minigene, 24 hours, 7-point concentration curve, 1.5-fold relative to vehicle-treated cells

SMILES	EC (1.5-fold) [1, 2] [µM]	maximum fold (Fold) increase of Smn protein (Smn protein)	melting point	EC (1.5-fold) ([1]; 24 h) [µM]
Cl.O=c1oc2cc(N3CCNCC3)ccc2cc1-c1nc2cccc(Cl)c2s1 [Compound 6, 3-(7-chloro-1,3-benzothiazol-2-yl)-7-(piperazin-1-yl)-2H-chromen-2-one hydrochloride]	1 to 3	* (maximum fold increase of ≤1.2)	320 °C (dec.)	
O=c1oc2cc(CN3CCNCC3)ccc2cc1-c1nc2c(Cl)cccc2s1 [Compound 7, 3-(4-chloro-1,3-benzothiazol-2-yl)-7-(piperazin-1-ylmethyl)-2H-chromen-2-one]	3 to 30	* (maximum fold increase of ≤1.2)	222 to 226 °C	
CC(C)NCc1ccc2cc(-c3nc4ccccc4s3)c(=O)oc2c1 [Compound 8, 3-(1,3-benzothiazol-2-yl)-7-[(propan-2-ylamino)methyl]-2H-chromen-2-one]	1 to 3	* (maximum fold increase of ≤1.2)	164 to 168 °C	
CC(C)NCc1ccc2cc(-c3nc4c(C(F)(F)F)cccc4s3)c(=O)oc2c1 [Compound 9, 7-[(propan-2-ylamino)methyl]-3-[4-(trifluoromethyl)-1,3-benzothiazol-2-yl]-2H-chromen-2-one]	3 to 30	* (maximum fold increase of ≤1.2)	191 to 196 °C	
CC(C)NCc1ccc2cc(-c3nc4c(Cl)cccc4s3)c(=O)oc2c1 [Compound 10, 3-(4-chloro-1,3-benzothiazol-2-yl)-7-[(propan-2-ylamino)methyl]-2H-chromen-2-one]	0.3 to 1	* (maximum fold increase of ≤1.2)	157 to 161 °C	
O=c1oc2cc(N3CCNCC3)ccc2cc1-c1cccnc1 [Compound 12, 7-(piperazin-1-yl)-3-(pyridin-3-yl)-2H-chromen-2-one]		* (maximum fold increase of ≤1.2)	170 to 172 °C	3 to 30
CN(C)Cc1ccc2cc(-c3nc4ccccc4s3)c(=O)oc2c1 [Compound 13, 3-(1,3-benzothiazol-2-yl)-7-[(dimethylamino)methyl]-2H-chromen-2-one]	1 to 3	** (fold increase between >1.2 and ≤1.35)	171 to 176 °C	
CC(C)N1CCN(c2ccc3cc(-c4nc5ccccc5s4)c(=O)oc3c2)CC1 [Compound 15, 3-(1,3-benzothiazol-2-yl)-7-[4-(propan-2-yl)piperazin-1-yl]-2H-chromen-2-one]	3 to 30	* (maximum fold increase of ≤1.2)	238 to 246 °C	
CN1CCN(c2ccc3cc(-c4nc5ccccc5s4)c(=O)oc3c2)CC1 [Compound 16, 3-(1,3-benzothiazol-2-yl)-7-(4-methylpiperazin-1-yl)-2H-chromen-2-one]	0.3 to 1	** (fold increase between >1.2 and ≤1.35)	259 to 262 °C	
CN1CCN(c2ccc3cc(-c4nc5c(Cl)cccc5s4)c(=O)oc3c2)CC1 [Compound 17, 3-(4-chloro-1,3-benzothiazol-2-yl)-7-(4-methylpiperazin-1-yl)-2H-chromen-2-one]	0.3 to 1	** (fold increase between >1.2 and ≤1.35)	256 to 260 °C	
Cl.O=c1oc2cc(N3CCNCC3)ccc2cc1-c1nc2cc(F)ccc2o1 [Compound 19, 3-(5-fluoro-1,3-benzoxazol-2-yl)-7-(piperazin-1-yl)-2H-chromen-2-one hydrochloride]	1 to 3	* (maximum fold increase of ≤1.2)	320 to 325 °C	
O=c1oc2cc(N3CCNCC3)ccc2cc1Nc1ncccn1 [Compound 33, 7-(piperazin-1-yl)-3-(pyrimidin-2-ylamino)-2H-chromen-2-one]			193 to 195 °C	3 to 30
Cc1cccn2cc(-c3cc4ccc(N5CCNCC5)cc4oc3=O)nc12 [Compound 44, 3-(8-methylimidazo[1,2-a]pyridin-2-yl)-7-(piperazin-1-yl)-2H-chromen-2-one]	0.3 to 1		190 to 193 °C	
O=c1oc2cc(OC3CCNCC3)ccc2cc1-c1nc2ccccc2s1 [Compound 46, 3-(1,3-benzothiazol-2-yl)-7-(piperidin-4-yloxy)-2H-chromen-2-one]	0.3 to 1		220 to 226 °C	
CN(C)C1CCN(c2ccc3cc(-c4nc5ccccc5o4)c(=O)oc3c2)C1 (stereo not shown) [Compound 48, 3-(1,3-benzoxazol-2-yl)-7-[3-(dimethylamino)pyrrolidin-1-yl]-2H-chromen-2-one]	1 to 3		222 to 224 °C	
O=c1oc2cc(N3CCNCC3)ccc2cc1Nc1cccnc1 [Compound 66, 7-(piperazin-1-yl)-3-(pyridin-3-ylamino)-2H-chromen-2-one]			172 to 175 °C	3 to 30
COc1cccc(-c2cc3ccc(N4CCNCC4)cc3oc2=O)c1 [Compound 77, 3-(3-methoxyphenyl)-7-(piperazin-1-yl)-2H-chromen-2-one]	3 to 30		127 to 130 °C	
Cc1cccn2cc(-c3cc4ccc(N5CCN(CCO)CC5)cc4oc3=O)nc12 [Compound 102, 7-[4-(2-hydroxyethyl)piperazin-1-yl]-3-(8-methylimidazo[1,2-a]pyridin-2-yl)-2H-chromen-2-one]	1 to 3		210 to 212 °C	
O=c1oc2cc(N3CCNCC3)ccc2cc1-c1ccc(Cl)cn1 [Compound 113, 3-(5-chloropyridin-2-yl)-7-(piperazin-1-yl)-2H-chromen-2-one]			180 to 182 °C	3 to 30
CCN1CC[C@@H](Oc2ccc3cc(-c4nc5ccccc5s4)c(=O)oc3c2)C1 [Compound 127, 3-(1,3-benzothiazol-2-yl)-7-{[(3R)-1-ethylpyrrolidin-3-yl]oxy}-2H-chromen-2-one]	1 to 3		195 to 198 °C	
O=c1oc2cc(CN3CCC(O)CC3)ccc2cc1-c1nc2c(Cl)cccc2s1 [Compound 273, 3-(4-chloro-1,3-benzothiazol-2-yl)-7-[(4-hydroxypiperidin-1-yl)methyl]-2H-chromen-2-one]	1 to 3		193 to 196 °C	
Cc1cn2cc(-c3cc4ccc(N5CCN[C@H](C)C5)cc4oc3=O)cc2cn1 [Compound 637, 7-[(3R)-3-methylpiperazin-1-yl]-3-(3-methylpyrrolo[1,2-a]pyrazin-7-yl)-2H-chromen-2-one]	< 0.1		220 to 223 °C	
O=c1oc2cc(N3CCNCC3)ccc2cc1Nc1ccccn1 [Cpd 32, 7-(piperazin-1-yl)-3-(pyridin-2-ylamino)-2H-chromen-2-one]			191 to 194 °C	3 to 30
Cn1ccc(-c2cc3ccc(N4CCNCC4)cc3oc2=O)n1 [Cpd 38, 3-(1-methyl-1H-pyrazol-3-yl)-7-(piperazin-1-yl)-2H-chromen-2-one]			224 to 228 °C	1 to 3
CN1CCN(c2ccc3cc(-c4ccn(-c5ccccc5)n4)c(=O)oc3c2)CC1 [Cpd 74, 7-(4-methylpiperazin-1-yl)-3-(1-phenyl-1H-pyrazol-3-yl)-2H-chromen-2-one]	3 to 30		152 to 159 °C	
